Results: patent US12522618B2, “Copper complexes for treatment of neurodegenerative disorders” (ALS Therapy Development Institute, priority 2020, dated 2026)

Assays:
SOD1^G93A mice [1] = assay: Disease onset (neuroscore NS2) and survival (NS4) in SOD1^G93A mice; type: in vivo, mouse; conditions: for Effect on disease onset / Effect on survival: male SOD1^G93A mice, 10 mg/kg or 30 mg/kg daily oral gavage, vs vehicle
Description: The SOD1^G93A transgenic mouse model of ALS has been the most widely used animal model since the 1990s. The mouse was genetically engineered to overexpress a mutant form of the human Cu/Zn superoxide dismutase 1 (SOD1) gene harboring an ALS-associated glycine to alanine mutation at amino acid position 93 (G93A). These mice replicate many of the features of ALS, such as motor neuron loss, muscle wasting, progressive paralysis and decreased survival. Additionally, the SOD1^G93A mouse model has shown to be ideal for drug screening because of early onset of the disease and moderate progression.
The mice were treated with vehicle, 10 mg/kg or 30 mg/kg CuATSM or one of the derivatives: Compound 25 (2% DMSO, 10% KolliphorHS15), Compound 9 (0.5% methylcellulose), Compound 24 (0.5% methylcellulose, 0.4% TWEEN-80), and Compound 37 (0.5% methylcellulose, 0.4% TWEEN-80). Measurements were taken to assess compound muscle action potential (CMAP), neuroscore, and disease onset and survival.
Neuroscore is a neurological scoring system based on visual observations of the hindlimb designed to assess the neuromuscular function of SOD1^G93A mice. The hindlimb is observed due to this being the earliest reported neurological sign of disease in SOD1^G93A mice. This method provides an unbiased assessment of onset of paresis (slight or partial paralysis) and the progression and severity of the paralysis. This method has also proven to be sensitive enough to identify drug-induced changes in disease progression. Neuroscore is assigned on a 0-4 scale corresponding to the following observations: NS0=the hindlimbs present with a normal splay; NS1=hindlimbs present with an abnormal splay; NS2=the hindlimbs show signs of paresis or are partially paralyzed; NS3=rigid paralysis in the hindlimbs; NS4=the mouse is unable to right itself up. These measurements were used in the current study to assess disease onset.
The onset of disease in the SOD1^G93A mice typically happens around age day 90-100, with mice eventually succumbing to the disease around age day 120-130. For comparison, a wild-type mouse of the same background may live up to 2 years. The onset of the disease in the current study was defined as the time to observe a neuroscore of NS2 in the mouse, while a neuroscore of a NS4 was considered to be the humane end-point. Reported p-values to illustrate statistical significant represent a log-rank test.

SOD1^G93A mice [2] = assay: Compound muscle action potential (CMAP) in SOD1^G93A mice; type: in vivo, mouse
[3] = system: transgenic mouse models of ALS; conditions: transgenic mice expressing human SOD1 with familial ALS mutations; cited from earlier work
[4] = male SOD1^G93A mice, 10 mg/kg or 30 mg/kg daily, four weeks, vs vehicle

SMILES: CN/C1=N/N=C(C)/C(Cc2cccnc2)=N/N=C(/NC)[S][Cu][S]1 [Compound 9]
- Effect on disease onset (SOD1^G93A mice [1]): did not significantly affect
- Effect on survival (SOD1^G93A mice [1]): did not significantly affect

SMILES: CCN/C1=N/N=C(c2ccc(CN3CCOCC3)o2)/C(C)=N/N=C(/NCC)[S][Cu][S]1 [Compound 24]
- CMAP values (change from baseline, % of baseline) (SOD1^G93A mice [2]; male SOD1^G93A mice, 10 mg/kg or 30 mg/kg daily oral gavage, five weeks, vs control): did not significantly improve CMAP values

SMILES: CN/C1=N/N=C(c2ccco2)/C(C)=N/N=C(/NC)[S][Cu][S]1 [Compound 25]
- Survival efficacy study (onset of neurological disease, survival, body weight, neurological score) (SOD1^G93A mice [1]; litter-matched, gender-balanced SOD1^G93A mice, chronic daily 30 mg/kg, vs control): displayed benefits
- CMAP as a percentage of baseline (SOD1^G93A mice [2]; SOD1^G93A mice, 10 mg/kg or 30 mg/kg daily oral gavage, 5 weeks, vs vehicle): significantly less change than the mice receiving vehicle
- CMAP change from baseline (SOD1^G93A mice [2]; SOD1^G93A mice, 10 mg/kg or 30 mg/kg daily oral gavage, five weeks, vs control): significant change in CMAP measurements from baseline compared to control mice

SMILES: CCN/C1=N/N=C(c2ccc(CN3CCN(C)CC3)o2)/C(C)=N/N=C(/NCC)[S][Cu][S]1 [Compound 37]
- Effect on disease onset (SOD1^G93A mice [1]): neither dose significantly affected
- Effect on survival (SOD1^G93A mice [1]): neither dose significantly affected
- CMAP decline (SOD1^G93A mice [2]; male SOD1^G93A mice, 10 mg/kg or 30 mg/kg daily oral gavage, four weeks): did not attenuate the CMAP decline

SMILES: CN=C([S-])N/N=C(C)/C(C)=N/NC([S-])=NC.[Cu+2] [CuATSM, reference compound]
- Protection in transgenic mouse models of ALS [3]: protective
- CMAP change from baseline (SOD1^G93A mice [2]; [4]): no differences
- percent of baseline CMAP (SOD1^G93A mice [2]; [4]): no differences
